Assay results as given in patent US4789670A, “Method and compositions for suppression of atherogenesis utilizing cholesterol hydroperoxides” (priority 1987, dated 1988).

What was measured:
[1] = target: Bovine brain calmodulin (Bos taurus, UniProt P62157); test: Calmodulin assayed by activation of calmodulin-dependent cyclic nucleotide phosphodiesterase; type: biochemical; conditions: 122 μM
Description: Bovine brain calmodulin was purified to homogeneity according to the method described by Sharma and Wang (1979), cited above, with the inclusion of phenyl-Sepharose affinity chromatography as described by Dedman and Kaetzel (1983) Methods Enzymol., 102:1-8. Calmodulin-deficient, calmodulin-dependent cyclic nucleotide phosphodiesterase from bovine brain was partially purified by the method described by Sharma et al. (1983) Methods Enzymol., 102:210-219, with the omission of the calmodulin-Sepharose affinity chromatography. Calmodulin was assayed by the activation of the bovine brain calmodulin-dependent cyclic, nucleotide phosphodiesterase as described by Leung et al. (1982) J. Biol. Chem., 259:2742-2747. Briefly, the phosphodiesterase reaction was coupled to the 5,'-nucleotidase reaction. The amount of phosphate released was measured by the malachite green method of Carter and Karl (1982) J. Biochem. Biophys. Methods, 7:7-13. One unit of calmodulin is defined as that amount giving 50% of the maximal activation of the phosphodiesterase.

[2] = test system: rabbits fed an atherogenic diet; conditions: cited from earlier work
[3] = Rabbit feeding experiment: cholesterol and cholesterol esters in liver and heart; type: in vivo; conditions: first feeding experiment, +/- S.D.
Description: (§1) For the first feeding experiment, eighteen young adult New Zealand white rabbits (2.7+/-0,3 kg) were divided into […]. The first group (3 animals) was killed immediately and tissue samples obtained for comparison with the experimental animals. The controls (3 rabbits) were fed 160 g/day Purina Pelleted Rabbit Chow (Ralston Purina Co., St. Louis, MO.); the other three groups (4 rabbits each) received the same diet to which was added 1.6 g recrystallized cholesterol, or 50 mg of the cholesterol hydroperoxide-enriched material, or both 1.6 g recrystallized cholesterol and 50 mg of cholesterol hydroperoxides. The sterols were added to the pelleted diet in ethyl ether and the ether was allowed to evaporate under a stream of nitrogen. The animals were fed this diet for 61 days, during which time one animal on the cholesterol diet died of unknown causes. The weight gained by the animals during the experiment, as percent of initial weight, was: controls, 38%; cholesterol, 33%; hydroperoxides, 34%; and cholesterol plus hydroperoxides, 18%. At the end of the feeding period the animals were killed and blood and tissue samples obtained for further investigation.
(§2) The aortas were sectioned longitudinally and stained with Sudan IV (Holman et al., 1958Lat. Invest., 7:42-47). Serum lipoproteins were separated as described by Havel et al. (1955) J. Clin. Invest., 34:1345-1353. Lipids were extracted by the method of Bligh and Dyer (1959) Can. J. Biochem. and Physiol., 37:911-917 and free and esterified cholesterol concentrations in plasma, lipoproteins, and tissue were determined by the method of Sale (1984) Anal. Biochem., 142:347-350.

[4] = test system: New Zealand white rabbits; test: Rabbit feeding experiments: aortas stained with Sudan IV for atherosclerotic lesions; type: in vivo
Description: as §1
A second feeding experiment was conducted in the same way as the first with the following changes. Twenty-six rabbits (2.8 +/-0.05 kg) were obtained; two were killed before the feeding experiment began and tissue samples obtained as before. The remaining animals were divided into 6 groups of 4. Four groups received the same diets as in the first experiment. The other two groups received 160/g day Purina Pelleted Rabbit Chow to which was added 50 mg/day of the material produced by reduction of the hydroperoxide-enriched material with NaI; or 1.6 g/day recrystallized cholesterol plus 50 mg/day of the reduced material. […]
The aortas were sectioned longitudinally and stained with Sudan IV (Holman et al., 1958Lat. Invest., 7:42-47). […] J. Biochem. and Physiol., 37:911-917 and free and esterified cholesterol concentrations in plasma, lipoproteins, and tissue were determined by the method of Sale (1984) Anal. Biochem., 142:347-350.

[5] = Rabbit feeding experiments: blood plasma cholesterol and cholesterol esters; type: in vivo; conditions: +/- S.D.
Description: as §1
A second feeding experiment was conducted in the same way as the first with the following changes. Twenty-six rabbits (2.8 +/-0.05 kg) were obtained; two were killed before the feeding experiment began and tissue samples obtained as before. The remaining animals were divided into 6 groups of 4. Four groups received the same diets as in the first experiment. The other two groups received 160/g day Purina Pelleted Rabbit Chow to which was added 50 mg/day of the material produced by reduction of the hydroperoxide-enriched material with NaI; or 1.6 g/day recrystallized cholesterol plus 50 mg/day of the reduced material. The animals received all six diets for 56 days, during which time one control animal and one receiving the hydroperoxide preparation died during removal of blood samples. The weight gain, as percent of initial weight, was: controls, 45%; cholesterol, 31%; hydroperoxides, 29%; cholesterol plus hydroperoxides, 31%; reduced hydroperoxides 35%, and cholesterol plus reduced hydroperoxides, 30%.
as §2

Question: With `CC(C)CCC[C@@H](C)[C@H]1CC[C@H]2[C@@H]3CCC4=CC(=O)CC[C@]4(C)[C@H]3CC[C@]12C` [4-cholesten-3-one] as the molecule, how does the “effect in the phosphodiesterase assay” value [1] read?
Answer: Its value is “without effect”.

Question: For `CC(C)CCC[C@@H](C)[C@H]1CC[C@H]2[C@@H]3C(=O)C=C4C[C@@H](O)CC[C@]4(C)[C@H]3CC[C@]12C` [5-cholesten-3β-ol-7-one], which “effect in the phosphodiesterase assay” value [1] is on record?
Answer: Its value is “without effect”.

Question: With `CC(C)CCC[C@@H](C)[C@H]1CC[C@H]2[C@@H]3C[C@@H]4O[C@@]45C[C@@H](O)CC[C@]5(C)[C@H]3CC[C@]12C` [Cholesterol-5α,6α-epoxide, cholesterol-5α,6α-epoxide] as the molecule, how does the “effect in the phosphodiesterase assay” value [1] read?
Answer: The value was “without effect”.

Question: What does the source list for `CN(C)CCCN1c2ccccc2Sc2ccc(Cl)cc21` [chlorpromazine]?
Answer: development of atherosclerotic lesions [2]: reduced the development of such lesions; effect on blood cholesterol [2]: without lowering of blood cholesterol

Question: What does the source list for `CC(C)CCC[C@@H](C)[C@H]1CC[C@H]2[C@@H]3CC=C4C[C@@H](O)CC[C@]4(C)[C@H]3CC[C@]12C` [cholesterol]?
Answer: cholesterol and esters, HEART [3]: 158 +/- 74 mg/100 g wet tissue; cholesterol and esters, LIVER [3]: 4960 +/- 1416 mg/100 g wet tissue; cholesterol, HEART [3]: 160 +/- 24 mg/100 g wet tissue; cholesterol, LIVER [3]: 1217 +/- 615 mg/100 g wet tissue; atherosclerotic lesions in aorta (Sudan IV) ([4]; first feeding experiment, 61 days, added to chow: 1.6 g/day cholesterol and/or 50 mg/day hydroperoxide material): heavily infiltrated with fatty material; atherosclerotic lesions in aorta (Sudan IV) ([4]; first feeding experiment, 61 days, added to chow: 1.6 g/day cholesterol and/or 50 mg/day hydroperoxide material, listed as Cholesterol): extensive atheroma formation; atherosclerotic lesions in aorta (Sudan IV) ([4]; second feeding experiment, 56 days, added to chow: 1.6 g/day cholesterol and/or 50 mg/day test material): less than in the first experiment; Final blood plasma Cholesterol ([5]; first feeding experiment): 446 ± 163 mg/dL; Final blood plasma Cholesterol Esters ([5]; first feeding experiment): 1507 ± 361 mg/dL; Final blood plasma Cholesterol ([5]; second feeding experiment): 828 ± 459 mg/dL; Final blood plasma Cholesterol Esters ([5]; second feeding experiment): 1520 ± 820 mg/dL
